Test results as given in patent US7214505B1, “Cell-based assay for the detection of toxic analytes” (priority 1999, dated 2007).

Assays:
[1] = system: Vibrio fischeri; test: Modified Microtox test, toxicant adsorbed onto silica gel then added to bacterial suspension; conditions: FIGS. 1 and 2, 30 minutes incubation
Protocol: Briefly the Microtox® tests used for this study first involve rehydration of freeze-dried luminescent Vibrio fischeri bacteria, i.e. the Microtox® reagent.
The reconstituted bacterial suspension is added to a series dilution of sample in 2% NaCl and incubated for 15° C. for 0.5–15 minutes. The dilutions can be modified to give any desired concentration of sample, and the volume of reagent used per test can also be varied.
After incubation, bioluminescence is measured in a suitable photometer, such as a Deltatox® photometer or that in the Microtox® Model 500 Analyzer.
Data is recorded in terms of decrease luminescence over time.
Generally, these tests are carried out in the presence of an adsorbent which is referred to as using a modified Microtox® test.
In one embodiment of the invention, the solid-phase adsorbent is added to samples of toxicants and left for 30 minutes at ambient temperature. The amount of solid adsorbent and the concentrations of toxicant used are varied.
During this time, rehydration of the freeze-dried Microtox® bacteria as an aqueous suspension is performed, and it is left to stabilize at 15° C. for 15 minutes. […]
At the same time, a control sample of bacteria is monitored for comparison. […]
After 30 minutes of incubation, the bioluminescence is measured using a photometer, and data is recorded in terms of decrease of luminescence over time.

[2] = system: Vibrio fischeri; test: Toxicity assay with freeze-dried (stabilized) silica-based bacterial reagent vs standard Microtox reagent; assay type: cell-based; conditions: 10 ppm malathion; FIG. 5
Protocol: Stabilization of the bacteria used in the standard Microtox® test is performed by freeze-drying, and the effects of stabilization on such a bacteria-silica mixture were also investigated. A bacteria-silica mixture at a specific bacteria to silica ratio is subjected to freeze-drying at −30° C. for 6 hours under a vacuum, i.e. 0.1 hPa. Thereafter, the temperature is ramped up to +15° C. at increments of 10° C. per 15 minutes, retaining the vacuum, and then held at +15° C. for 8 hours.
Tests are then run to compare this freeze-dried mixture with the standard Microtox® freeze-dried reagent.

[3] = system: Vibrio fischeri; test: Microtox test with bacteria immobilized on silica gel (bacteria/silica mixture); assay type: cell-based; conditions: FIGS. 3, 4 & 5; silica gel
Protocol: For initial testing of such a bacteria/silica mixture, rehydration of freeze-dried luminescent Vibrio fischeri Microtox® reagent is carried out as before, and 4 aliquots are taken. One aliquot of the resultant suspension is mixed with 0.5 g of silica gel, although the amount of silica gel can be varied. After the bacteria are adsorbed onto the silica gel, the resultant mixture is used as the bioluminescent reagent in toxicity assays. Two of the other aliquots are used as controls (with and without silica gel), and the third is tested with toxicant alone.

| SMILES | toxicity effect (effect on luminescence) when toxicant is adsorbed onto a solid surface, compared to aqueous toxicant [1] | % toxic effect with stabilized silica-based reagent compared to standard Microtox reagent [2] | toxic effect of aqueous toxicant on bioluminescence with bacteria immobilized by adsorption onto a solid surface, compared to free bacteria [3] |
| --- | --- | --- | --- |
| CCOC(=O)CC(SP(=S)(OC)OC)C(=O)OCC (centres unmarked) [malathion] | increased | increased | enhanced |
| Oc1ccccc1 [phenol] | increased | – | enhanced |
